According to PMC4266452, “Prediction of Thorough QT study results using action potential simulations based on ion channel screens” (Journal of Pharmacological and Toxicological Methods, 2014):
“And” between values parts separate entries of the source, which are not always exact repeats. Identical values can stand only once. Like-named read-outs stand apart in the source and are kept apart here.

Assays:
[1] = Plasma concentration (Cmax) during the TQT study, total and calculated free; format: in vivo, human
[2] = ref Gintant (2011), cited from earlier work
[3] = ref Gintant (2011); cited from earlier work
Kv4.3/KChIP2.2 = biological target: T1, Kv4.3/KChIP2.2 (Homo sapiens, UniProt Q9UK17); experiment: IonWorks Quattro Kv4.3/KChIP2.2 screen (AstraZeneca, Q); format: cell-based; conditions: IonWorks Quattro, −log10 of IC50 in Molar, Hill n = 1
T1 sequence (Q9UK17 1-655): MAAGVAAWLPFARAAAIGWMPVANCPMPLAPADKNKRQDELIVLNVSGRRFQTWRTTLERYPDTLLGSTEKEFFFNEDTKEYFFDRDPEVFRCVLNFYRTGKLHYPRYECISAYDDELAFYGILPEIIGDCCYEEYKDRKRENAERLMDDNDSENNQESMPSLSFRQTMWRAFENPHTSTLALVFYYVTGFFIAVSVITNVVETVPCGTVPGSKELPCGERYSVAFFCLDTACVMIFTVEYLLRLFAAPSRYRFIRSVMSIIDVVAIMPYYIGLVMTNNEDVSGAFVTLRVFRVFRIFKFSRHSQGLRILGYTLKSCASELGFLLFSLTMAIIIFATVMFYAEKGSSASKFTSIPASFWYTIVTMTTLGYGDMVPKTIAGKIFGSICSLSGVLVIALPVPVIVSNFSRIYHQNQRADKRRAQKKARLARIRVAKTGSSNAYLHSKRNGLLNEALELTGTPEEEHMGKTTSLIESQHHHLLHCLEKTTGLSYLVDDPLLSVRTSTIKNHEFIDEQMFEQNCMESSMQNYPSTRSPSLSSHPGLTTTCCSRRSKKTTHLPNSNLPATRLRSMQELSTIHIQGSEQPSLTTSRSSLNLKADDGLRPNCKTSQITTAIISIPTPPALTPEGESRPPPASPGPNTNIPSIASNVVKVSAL
T1 sequence (Q9NS61 1-270 partner): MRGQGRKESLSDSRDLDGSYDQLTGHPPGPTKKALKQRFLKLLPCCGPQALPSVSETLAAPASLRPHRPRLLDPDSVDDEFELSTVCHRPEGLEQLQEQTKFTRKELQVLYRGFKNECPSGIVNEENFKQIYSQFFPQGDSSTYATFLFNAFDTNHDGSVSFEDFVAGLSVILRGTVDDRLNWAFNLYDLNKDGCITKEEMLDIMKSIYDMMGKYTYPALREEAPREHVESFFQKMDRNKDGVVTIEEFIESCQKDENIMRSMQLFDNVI

NaV1.5 [4] = biological target: T2, NaV1.5 (Homo sapiens, UniProt Q14524); experiment: IonWorks Quattro NaV1.5 screen (AstraZeneca, Q)
T2 sequence (Q14524 whole entry): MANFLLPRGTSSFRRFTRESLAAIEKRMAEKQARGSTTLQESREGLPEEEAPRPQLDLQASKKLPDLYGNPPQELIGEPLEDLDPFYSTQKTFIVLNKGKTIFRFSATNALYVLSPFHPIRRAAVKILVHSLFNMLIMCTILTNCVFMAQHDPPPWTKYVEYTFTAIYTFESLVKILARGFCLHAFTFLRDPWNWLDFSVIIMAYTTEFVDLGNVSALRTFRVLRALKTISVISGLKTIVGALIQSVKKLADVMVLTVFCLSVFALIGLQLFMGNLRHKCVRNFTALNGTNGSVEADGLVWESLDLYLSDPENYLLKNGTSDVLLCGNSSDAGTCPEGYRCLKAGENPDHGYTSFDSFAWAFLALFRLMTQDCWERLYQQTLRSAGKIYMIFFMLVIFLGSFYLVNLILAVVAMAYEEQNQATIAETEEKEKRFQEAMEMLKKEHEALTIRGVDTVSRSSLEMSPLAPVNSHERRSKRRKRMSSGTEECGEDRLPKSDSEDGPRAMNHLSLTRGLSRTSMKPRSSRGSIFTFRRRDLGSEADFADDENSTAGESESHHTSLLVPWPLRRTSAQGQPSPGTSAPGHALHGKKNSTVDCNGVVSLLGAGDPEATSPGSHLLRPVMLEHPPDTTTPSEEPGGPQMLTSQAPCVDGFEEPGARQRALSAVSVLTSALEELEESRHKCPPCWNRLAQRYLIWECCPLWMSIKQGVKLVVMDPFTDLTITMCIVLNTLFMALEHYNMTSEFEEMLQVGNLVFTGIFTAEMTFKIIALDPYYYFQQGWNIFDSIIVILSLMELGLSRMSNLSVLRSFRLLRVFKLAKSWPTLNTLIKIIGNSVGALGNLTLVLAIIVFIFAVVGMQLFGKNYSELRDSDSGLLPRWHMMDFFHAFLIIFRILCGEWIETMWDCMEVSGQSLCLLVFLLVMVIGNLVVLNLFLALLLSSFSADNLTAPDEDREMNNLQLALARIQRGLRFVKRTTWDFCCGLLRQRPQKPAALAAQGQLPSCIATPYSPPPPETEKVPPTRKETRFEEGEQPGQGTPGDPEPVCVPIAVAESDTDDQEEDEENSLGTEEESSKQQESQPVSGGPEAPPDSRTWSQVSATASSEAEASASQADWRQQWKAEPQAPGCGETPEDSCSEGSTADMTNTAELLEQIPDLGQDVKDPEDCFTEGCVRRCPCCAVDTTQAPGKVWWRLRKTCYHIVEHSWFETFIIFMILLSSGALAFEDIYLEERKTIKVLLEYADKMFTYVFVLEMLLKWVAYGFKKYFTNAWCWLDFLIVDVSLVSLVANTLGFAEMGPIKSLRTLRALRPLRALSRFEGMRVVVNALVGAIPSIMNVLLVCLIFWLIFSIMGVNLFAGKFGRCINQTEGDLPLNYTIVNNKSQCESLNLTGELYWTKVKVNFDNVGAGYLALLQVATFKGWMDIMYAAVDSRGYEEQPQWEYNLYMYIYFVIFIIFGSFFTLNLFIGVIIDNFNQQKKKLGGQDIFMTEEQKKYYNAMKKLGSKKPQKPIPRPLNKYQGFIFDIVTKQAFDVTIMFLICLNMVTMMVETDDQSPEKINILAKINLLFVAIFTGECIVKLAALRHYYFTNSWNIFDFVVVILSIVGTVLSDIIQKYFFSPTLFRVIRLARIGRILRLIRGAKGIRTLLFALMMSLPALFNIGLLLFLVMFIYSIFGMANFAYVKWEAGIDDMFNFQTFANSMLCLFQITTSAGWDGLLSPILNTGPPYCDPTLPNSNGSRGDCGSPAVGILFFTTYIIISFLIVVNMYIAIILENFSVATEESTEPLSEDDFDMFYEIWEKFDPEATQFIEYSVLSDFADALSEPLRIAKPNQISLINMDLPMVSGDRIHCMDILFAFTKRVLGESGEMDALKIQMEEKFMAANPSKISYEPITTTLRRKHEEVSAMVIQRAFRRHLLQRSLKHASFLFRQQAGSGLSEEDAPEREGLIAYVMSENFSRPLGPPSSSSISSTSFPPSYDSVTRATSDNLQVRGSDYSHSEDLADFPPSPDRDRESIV

NaV1.5 [5] = biological target: T2, NaV1.5; experiment: Second IonWorks Quattro NaV1.5 screen (GSK, Q2)
[6] = system: QT interval on the body surface ECG; conditions: cited from earlier work; for QT shortening in the TQT study: range over the three drugs
CaV1.2 = CaV1.2 (Homo sapiens, UniProt Q13936); experiment: IonWorks Quattro CaV1.2 screen (AstraZeneca, Q)
KCNQ1/MinK = KCNQ1/MinK (Homo sapiens, UniProt P51787); experiment: IonWorks Quattro KCNQ1/MinK screen (AstraZeneca, Q); conditions: −log10 of IC50 in Molar, Hill n = 1, 0.0 = pIC50 ≤ 0 fitted
Chain of KCNQ1/MinK (P51787 whole entry): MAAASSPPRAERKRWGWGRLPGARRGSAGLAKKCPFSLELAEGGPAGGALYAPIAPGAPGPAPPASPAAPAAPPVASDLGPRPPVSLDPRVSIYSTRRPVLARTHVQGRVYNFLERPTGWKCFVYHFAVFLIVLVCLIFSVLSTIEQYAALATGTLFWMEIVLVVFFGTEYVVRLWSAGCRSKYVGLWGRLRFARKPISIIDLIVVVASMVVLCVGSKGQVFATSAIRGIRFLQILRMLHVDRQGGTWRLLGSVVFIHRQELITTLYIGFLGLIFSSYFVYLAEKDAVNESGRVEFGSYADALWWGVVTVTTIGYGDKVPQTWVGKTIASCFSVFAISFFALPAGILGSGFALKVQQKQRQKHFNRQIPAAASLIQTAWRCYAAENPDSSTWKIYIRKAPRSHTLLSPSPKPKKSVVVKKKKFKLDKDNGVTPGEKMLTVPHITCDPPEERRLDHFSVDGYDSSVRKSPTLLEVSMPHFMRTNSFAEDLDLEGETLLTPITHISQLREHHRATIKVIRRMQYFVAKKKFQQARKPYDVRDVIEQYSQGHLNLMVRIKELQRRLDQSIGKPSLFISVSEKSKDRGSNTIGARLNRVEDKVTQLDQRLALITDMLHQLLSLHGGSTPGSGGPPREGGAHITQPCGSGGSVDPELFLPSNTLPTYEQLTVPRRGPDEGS

[7] = Cmax high, calculated with PPB and molecular weight
[8] = Cmax low, calculated with PPB and molecular weight
[9] = IonWorks Quattro, −log10 of IC50 in Molar, Hill n = 1, 0.0 = pIC50 ≤ 0 fitted
[10] = Cmax low, calculated from ng/mL and molecular weight
[11] = first (lower) of two lines, not labelled low/high
[12] = second (higher) of two lines, not labelled low/high
[13] = Cmax high, calculated from ng/mL and molecular weight
[14] = 40 mg, ref FDA product label review

| Structure (SMILES) | Free plasma concentration ([1]; Cmax low) [nM] | Cmax FREE ([1]; Cmax low, calculated with PPB) [ng/mL] | Cmax TOTAL ([2]; Cmax low) [ng/mL] | PPB (percent plasma binding) [3] | Cmax FREE ([1]; Cmax high, calculated with PPB) [ng/mL] | Cmax FREE [1, 7] [nM] | Cmax FREE [1, 8] [nM] | Cmax TOTAL ([2]; Cmax high) [ng/mL] | other results |
| --- | --- | --- | --- | --- | --- | --- | --- | --- | --- |
| COc1c(N2C[C@@H]3CCCN[C@@H]3C2)c(F)cc2c(=O)c(C(=O)O)cn(C3CC3)c12 [Moxifloxacin] | 2745 | 1257.030 | 2793.4 | 55% PPB |  |  |  |  |  |
| CCCc1nn(C)c2c(=O)[nH]c(-c3cc(S(=O)(=O)N4CCN(C)CC4)ccc3OCC)nc12 [Sildenafil] |  | 7.12 |  | 96% | 60.76 | 128.024 | 15.0021 |  | Kv4.3 pIC50 (Q) (Kv4.3/KChIP2.2; 0.0 = pIC50 ≤ 0 fitted): 3.3; NaV1.5 pIC50 (Q) (NaV1.5 [4]): 3.3; NaV1.5 pIC50 (Q2) (NaV1.5 [5]): 2.9 |
| O=C(O[C@H]1CN2CCC1CC2)N1CCc2ccccc2[C@@H]1c1ccccc1 [Solifenacin] |  |  |  | 98% PPB |  |  |  |  |  |
| COCCCOc1cc(C[C@@H](C[C@H](N)[C@@H](O)C[C@H](C(=O)NCC(C)(C)C(N)=O)C(C)C)C(C)C)ccc1OC [ALISKIRIN] |  |  |  |  |  |  |  |  | relationship between exposure and QTc in words (COMMENTS) ([6]; ref Gintant (2011)): Lack of relationship between aliskirin exposure and QTcF |
| O=C(O)c1ccc(-n2nc(-c3ccccc3O)nc2-c2ccccc2O)cc1 [Deferasirox] |  |  |  | 99.5% |  |  |  |  | Cmax FREE ([1]; Cmax 40mg/kg): 995 nM; Cmax TOTAL ([1]; Cmax 40mg/kg): 199000 nM; Free plasma concentration ([1]; Cmax 40mg/kg): 995 nM; Cmax TOTAL ([2]; Cmax TQT, 40mg/kg, comes from docs): 199 comes from docs for Cmax uM; CaV1.2 pIC50 (Q) (CaV1.2; [9]): 3.0; NaV1.5 pIC50 (Q) (NaV1.5 [4]; [9]): 4.1; NaV1.5 pIC50 (Q2) (NaV1.5 [5]; second independent Quattro screening, −log10 of IC50 in Molar, 0.0 = pIC50 ≤ 0 fitted): 3.3 |
| Cc1cn(-c2cc(NC(=O)c3ccc(C)c(Nc4nccc(-c5cccnc5)n4)c3)cc(C(F)(F)F)c2)cn1 [Nilotinib] | 83.86 | 45.200 | […] | 98% PPB |  |  | 83.861 |  | Cmax TOTAL [1, 10]: 4193.028 nM; NaV1.5 pIC50 (Q) (NaV1.5 [4]): 3.0; NaV1.5 pIC50 (Q2) (NaV1.5 [5]): […] |
| NC(=O)C(c1ccccc1)(c1ccccc1)[C@@H]1CCN(CCc2ccc3c(c2)CCO3)C1 [Darifenacin] |  |  |  | 98% PPB |  |  |  |  | Kv4.3 pIC50 (Q) (Kv4.3/KChIP2.2; 0.0 = pIC50 ≤ 0 fitted): 4.9; Cmax FREE [1, 11]: 0.112 ng/mL and 0.2207 nM; Cmax TOTAL [1, 11]: 11.0345 nM; Free plasma concentration [1, 11]: 0.2207 nM; Cmax FREE [1, 12]: 1.266 ng/mL and 2.495 nM; Cmax TOTAL [1, 12]: 124.729 nM; Free plasma concentration [1, 12]: 2.495 nM; QT shortening in the TQT study ([6]; ref Gintant (2011)): 2 to 7 ms; Cmax TOTAL [2, 11]: 5.6 ng/mL; Cmax TOTAL [2, 12]: 63.3 ng/mL |
| O=C1c2cccc3c2[C@H](CCC3)CN1[C@@H]1CN2CCC1CC2 [Palonosetron] | 2.91 | 0.9686 | 2.549 | 62% | 2.128 | 6.393 | 2.910 | 5.6 | Free plasma concentration ([1]; Cmax high): 6.393 nM; Cmax TOTAL [1, 13]: 16.823 nM; Cmax TOTAL [1, 10]: 7.658 nM; TQT study outcome in words (COMMENTS) ([6]; ref Gintant (2011)): Product labeling: no significant effect on any ECG interval |
| Cc1cc(C#N)cc(C)c1Oc1nc(Nc2ccc(C#N)cc2)nc(N)c1Br [Etravirine] |  | 0.921 | 921 | 99.9% PPB | 1.322 | 3.037 | 2.116 | 1322 | Kv4.3 pIC50 (Q) (Kv4.3/KChIP2.2; 0.0 = pIC50 ≤ 0 fitted): 2.5; QTc change (QTcF) ([6]; TQT study, highest dose, ref Gintant (2011)): -5.70 ms; QT shortening in the TQT study ([6]; ref Gintant (2011)): 2 to 7 ms; TQT study outcome in words (COMMENTS) ([6]; ref Gintant (2011)): QT shortening; mean Cmax ([2]; supratherapeutic / highest dose of the TQT study): 1378 ng/mL; KCNQ1 pIC50 (Q) (KCNQ1/MinK): 2.9 |
| C[C@@H](O)[C@H]1C(=O)N2C(C(=O)O)=C(S[C@@H]3CN[C@H](CNS(N)(=O)=O)C3)[C@H](C)[C@H]12 [Doripenem] | 45894.9 | 19299 | 21000 | 8.1% PPB | 41355 | 98346.2 | 45894.9 | 45000 | Free plasma concentration ([1]; Cmax high): 98346.2 nM; CaV1.2 pIC50 (Q) (CaV1.2): 5.7 |
| CN(CCOc1ccc(NS(C)(=O)=O)cc1)CCc1ccc(NS(C)(=O)=O)cc1 [Dofetilide] |  |  |  |  |  |  |  |  | plasma concentration ([1]; end of the line in nM): 9.5 nM; plasma concentration ([1]; end of the line in ng/mL): 4.195 nM; therapeutic range, lower value ([1]; line in ng/mL): 0.1766 ng/mL; therapeutic range, upper value ([1]; line in ng/mL): 0.8832 ng/mL; total plasma conc ([1]; line in ng/mL): 4.1952 ng/mL; total plasma conc [2]: 9.5 nM |
| CC[C@@H](c1cccc(O)c1)[C@@H](C)CN(C)C [TAPENTADOL] |  |  |  |  |  |  |  |  | TQT study outcome in words (COMMENTS) ([6]; ref Gintant (2011)): 90% Confidence interval; study considered negative |
| Cc1nc(Nc2ncc(C(=O)Nc3c(C)cccc3Cl)s2)cc(N2CCN(CCO)CC2)n1.O [Dasatinib] | 7.905 | 4 | 100 | 96% PPB | 10.52 | 20.790 | 7.905 | 263 | Kv4.3 pIC50 (Q) (Kv4.3/KChIP2.2; […]): 3.5; Free plasma concentration ([1]; Cmax high): 20.79 nM; Cmax TOTAL [1, 13]: 519.742 nM; Cmax TOTAL [1, 10]: 197.621 nM |
| COc1cc2nc(N(C)CCCNC(=O)C3CCCO3)nc(N)c2cc1OC (centres unmarked) [Alfuzosin] | 1.529 | 0.80 | 8 | 90% ppb | 4.05 | 7.74 |  | 40.5 | Kv4.3 pIC50 (Q) (Kv4.3/KChIP2.2; 0.0 = pIC50 ≤ 0 fitted): 3.0; Free plasma concentration ([1]; Cmax high): 7.739 nM; Cmax TOTAL [1, 13]: 77.39 nM; Cmax TOTAL [1, 10]: 15.29 nM; estimated TQT concentration (free plasma) ([1]; largest dose in the TQT study): < 10^–2 μM; QTc change, individual correction [6, 14]: 4.3 ms; QTc change, population correction [6, 14]: 4.2 ms; KCNQ1 pIC50 (Q) (KCNQ1/MinK): 3.9 |
